Test results as given in patent US20240245658A1, “TAAR1 AND SEROTONIN MODULATORS, AND PHARMACEUTICAL COMPOSITIONS, AND METHODS OF USE THEREOF” (Sunovion Pharmaceuticals Inc., priority 2021, published 2024).
Like-named read-outs stand apart in the source and are kept apart here.

Legend:
Format in all cases: cell-based
human TAAR1 receptors = target: T1, human TAAR1 receptors (Homo sapiens, UniProt Q96RJ0); experiment: TAAR1 Agonism Assay: cAMP HTRF assay for Gs coupled receptor TAAR1 (Euroscreen FAST-0987C); details: CHO-K1 cells expressing human TAAR1, cAMP HTRF
T1 construct: host or cells: CHO-K1
T1 sequence (Q96RJ0 1-339): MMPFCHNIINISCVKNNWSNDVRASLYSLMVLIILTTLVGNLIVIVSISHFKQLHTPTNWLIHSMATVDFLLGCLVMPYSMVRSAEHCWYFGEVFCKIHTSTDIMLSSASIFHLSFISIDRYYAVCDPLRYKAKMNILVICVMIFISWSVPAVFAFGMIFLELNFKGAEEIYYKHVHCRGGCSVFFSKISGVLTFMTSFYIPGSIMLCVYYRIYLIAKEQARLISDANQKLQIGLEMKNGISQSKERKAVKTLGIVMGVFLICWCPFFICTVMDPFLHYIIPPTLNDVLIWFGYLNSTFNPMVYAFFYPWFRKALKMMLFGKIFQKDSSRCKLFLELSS
Description: Dose response curves were performed in parallel with the reference compound, tyramine.
For the TAAR1 agonist test (performed in a 384 well plate): 5 μl of cells (about 3,000 cells) were mixed with 5 μl of the test compound diluted in assay buffer and then incubated for about 30 minutes at about room temperature. After addition of the lysis buffer containing cAMP-d2 and anti-cAMP cryptate detection reagents, plates were incubated for about a 1-hour incubation at about room temperature, and fluorescence ratios were measured according to the manufacturer specifications, with the HTRF (Homogeneous Time Resolved Fluorescence) kit (cAMP Gs dynamic kit, Cisbio Bioassays, 62AM4PEJ).
(§1) Compounds were tested at the following nanomolar concentrations, in duplicate: 0.3 nM, 1 nM, 3 nM, 10 nM, 30 nM, 100 nM, 300 nM, 1,000 nM, 3,000 nM, and 10,000 nM.

human 5-HT2A receptor = target: T2, human 5-HT2A receptor (Homo sapiens, UniProt P28223); experiment: 5HT2A Antagonism Assay (Euroscreen FAST-05051), IP-One HTRF
T2 construct: host or cells: CHO-K1
T2 sequence (P28223 whole entry): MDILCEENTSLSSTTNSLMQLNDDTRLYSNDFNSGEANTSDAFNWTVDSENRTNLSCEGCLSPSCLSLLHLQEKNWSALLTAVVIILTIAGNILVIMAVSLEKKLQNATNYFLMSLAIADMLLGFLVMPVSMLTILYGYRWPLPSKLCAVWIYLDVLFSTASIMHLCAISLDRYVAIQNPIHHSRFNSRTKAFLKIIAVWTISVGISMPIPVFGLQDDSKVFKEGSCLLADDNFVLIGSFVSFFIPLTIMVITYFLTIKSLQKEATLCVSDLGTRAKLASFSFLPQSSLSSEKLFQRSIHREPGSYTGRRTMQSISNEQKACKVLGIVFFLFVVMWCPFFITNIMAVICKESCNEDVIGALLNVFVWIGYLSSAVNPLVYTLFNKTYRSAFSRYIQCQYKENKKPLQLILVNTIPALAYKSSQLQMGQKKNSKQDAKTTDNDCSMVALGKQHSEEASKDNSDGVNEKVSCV
Description: 5HT2A Antagonism Assay Protocol (Euroscreen FAST-05051)
CHO-K1 cells expressing the human 5-HT2A receptor grown to mid-log phase in culture media without antibiotics, were detached with PBS-EDTA, centrifuged, and resuspended in the IP-One Gq kit (Cisbio Bioassays, 62IPAPEC) stimulation buffer.
For antagonist testing in a 384 well plate: 5 μl of cells (20,000 cells) were mixed with 5 μl of a mix of test compound and reference agonist (for a final assay concentration corresponding to its EC80) diluted in stimulation buffer. The plate was incubated for 60 minutes at 37° C. in a humidified atmosphere of 95% air with 5% CO2, then 5 μL of IP1-d2 and anti-IP1 cryptate detection reagents were added to each well, the plates were incubated for about 1 hour at about room temperature. Fluorescence ratios are measured according to the manufacturer's specification (IP-One Gq kit (Cisbio Bioassays, 62IPAPEC).
Dose response curves were performed in parallel with reference compounds (e.g., α-methyl-5-HT. Compounds were tested at the following nanomolar concentrations, in duplicate: 0.3 nM, 1 nM, 3 nM, 10 nM, 30 nM, 100 nM, 300 nM, 1,000 nM, 3,000 nM, and 10,000 nM

human 5-HT7 receptor = target: T3, human 5-HT7 receptor (Homo sapiens, UniProt P34969); experiment: 5HT7 Antagonism Assay (Euroscreen FAST-0499C), cAMP HTRF; details: CHO-K1 cells expressing human 5-HT7, reference agonist at EC80, cAMP HTRF
T3 construct: host or cells: CHO-K1
T3 sequence (P34969 whole entry): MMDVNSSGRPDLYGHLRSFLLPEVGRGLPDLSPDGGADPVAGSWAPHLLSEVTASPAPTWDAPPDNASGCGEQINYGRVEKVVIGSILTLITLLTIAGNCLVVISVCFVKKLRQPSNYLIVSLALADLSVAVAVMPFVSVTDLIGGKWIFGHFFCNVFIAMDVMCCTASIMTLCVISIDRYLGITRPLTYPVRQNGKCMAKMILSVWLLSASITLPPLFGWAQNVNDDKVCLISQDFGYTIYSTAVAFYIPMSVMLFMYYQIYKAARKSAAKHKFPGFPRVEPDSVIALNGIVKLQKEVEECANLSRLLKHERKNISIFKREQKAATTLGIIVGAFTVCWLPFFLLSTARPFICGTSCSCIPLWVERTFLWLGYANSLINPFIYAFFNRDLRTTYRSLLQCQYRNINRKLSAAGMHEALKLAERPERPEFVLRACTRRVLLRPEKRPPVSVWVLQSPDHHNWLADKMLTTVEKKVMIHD
Description: 5HT7 Antagonism Assay Protocol (Euroscreen FAST-0499C)
CHO-K1 cells expressing the human 5-HT7 receptor, grown prior to the test in media without antibiotic, were detached by gentle flushing with PBS-EDTA (5 mM EDTA), recovered by centrifugation and resuspended in assay buffer (Krebs-Ringer HEPES buffer: 5 mM KCl, 1.25 mM MgSO4, 124 mM NaCl, 25 mM HEPES, 13.3 mM Glucose, 1.25 mM KH2PO4, 1.45 mM CaCl2), 0.5 g/l BSA, supplemented with 1 mM IBMX).
Dose response curves were performed in parallel with reference compounds (e.g., 5-carboxamidotryptamine (5-CT)).
For antagonist testing in a 384 well plate: 5 μl of cells (3000 cells) were mixed with 5 μl of a mix of test compound and reference agonist (for a final assay concentration corresponding to its EC80) diluted in assay buffer. The plates were then incubated for about 30 minutes at about room temperature. After addition of the lysis buffer containing cAMP-d2 and anti-cAMP cryptate detection reagents, plates were incubated for about 1 hour at about room temperature, and fluorescence ratios were measured according to the manufacturer's specifications (HTRF kit: cAMP Gs dynamic kit, Cisbio Bioassays, 62AM4PEJ).
as §1

[1] = read-out: 5-HT2A (IC50), CHO-K1 cells expressing human 5-HT2A, reference agonist at EC80, IP-One
[2] = 5-HT2A (IC50), CHO-K1 cells expressing human 5-HT2A, reference agonist at EC80, IP-One
[3] = CHO-K1 cells expressing human 5-HT2A, reference agonist at EC80, IP-One, read-out: 5-HT2A (IC50)

| SMILES | EC50 (human TAAR1 receptors) [µM] | IC50 (human 5-HT2A receptor; [1]) [µM] | IC50 (human 5-HT7 receptor) [µM] | IC50 (human 5-HT2A receptor; [2]) [µM] | IC50 (human 5-HT2A receptor; [3]) [µM] |
| --- | --- | --- | --- | --- | --- |
| NCC1Cc2ncccc2Oc2ccccc21 (single isomer, unassigned) [Compound 30, (S*)-(10,11-dihydrobenzo[6,7]oxepino[3,2-b]pyridin-10-yl)methanamine] | < 1 | 1 to 10 | ≥ 10 |  |  |
| CNCC1Cc2ncccc2Oc2ccccc21 (single isomer, unassigned) [Compound 31, (R*)-1-(10,11-dihydrobenzo[6,7]oxepino[3,2-b]pyridin-10-yl)-N-methylmethanamine] | > 10 |  | ≥ 10 | < 1 |  |
| CNCC1Cc2ncccc2Oc2ccccc21 (single isomer, unassigned) [Compound 32, (S*)-1-(10,11-dihydrobenzo[6,7]oxepino[3,2-b]pyridin-10-yl)-N-methylmethanamine] | < 1 | < 1 | ≥ 10 |  |  |
| NCC1Cc2ncccc2Oc2cc(F)ccc21 (single isomer, unassigned) [Compound 36, (S*)-(7-fluoro-10,11-dihydrobenzo[6,7]oxepino[3,2-b]pyridin-10-yl)methanamine] | < 1 |  | ≥ 10 | < 1 |  |
| CNC[C@H]1Cc2ncc(F)cc2Oc2ccccc21 (single isomer, unassigned) [Compound 38, (S*)-1-(3-fluoro-10,11-dihydrobenzo[6,7]oxepino[3,2-b]pyridin-10-yl)-N-methylmethanamine] | 1 to 10 |  | 1 to 10 |  | < 1 |
| NCC1Cc2ncc(F)cc2Oc2ccccc21 (single isomer, unassigned) [Compound 39, (R*)-(3-fluoro-10,11-dihydrobenzo[6,7]oxepino[3,2-b]pyridin-10-yl)methanamine] | 1 to 10 |  | ≥ 10 | < 1 |  |
| NCC1Cc2ncc(F)cc2Oc2ccccc21 (single isomer, unassigned) [Compound 40, (S*)-(3-fluoro-10,11-dihydrobenzo[6,7]oxepino[3,2-b]pyridin-10-yl)methanamine] | < 1 | < 1 | ≥ 10 |  |  |
| NCC1Oc2ccc(F)cc2Oc2ccccc21 (single isomer, unassigned) [Compound 41, (R*)-(7-fluoro-11H-dibenzo[b,e][1,4]dioxepin-11-yl)methanamine] | < 1 |  | 1 to 10 | < 1 |  |
| NCC1Oc2ccc(F)cc2Oc2ccccc21 (single isomer, unassigned) [Compound 42, (S*)-(7-fluoro-11H-dibenzo[b,e][1,4]dioxepin-11-yl)methanamine] | < 1 | < 1 | ≥ 10 |  |  |
| CNCC1Oc2ccc(F)cc2Oc2ccccc21 (single isomer, unassigned) [Compound 43, (R*)-1-(7-fluoro-11H-dibenzo[b,e][1,4]dioxepin-11-yl)-N-methylmethanamine] | < 1 |  | < 1 | < 1 |  |
| CNCC1Oc2ccc(F)cc2Oc2ccccc21 (single isomer, unassigned) [Compound 44, (S*)-1-(7-fluoro-11H-dibenzo[b,e][1,4]dioxepin-11-yl)-N-methylmethanamine] | < 1 | < 1 | < 1 |  |  |
| CNCC1Oc2ccccc2Oc2ncccc21 (single isomer, unassigned) [Compound 45, (R*)-1-(5H-benzo[2,3][1,4]dioxepino[5,6-b]pyridin-5-yl)-N-methylmethanamine] | > 10 |  | ≥ 10 |  | 1 to 10 |
| CNCC1Oc2ccccc2Oc2ncccc21 (single isomer, unassigned) [Compound 46, (S*)-1-(5H-benzo[2,3][1,4]dioxepino[5,6-b]pyridin-5-yl)-N-methylmethanamine] | 1 to 10 |  | ≥ 10 |  | 1 to 10 |
| NCC1Oc2ccccc2Oc2ncccc21 (single isomer, unassigned) [Compound 47, (R*)-(5H-benzo[2,3][1,4]dioxepino[5,6-b]pyridin-5-yl)methanamine] | 1 to 10 |  | ≥ 10 |  | > 10 |
| NCC1Oc2ccccc2Oc2ncccc21 (single isomer, unassigned) [Compound 48, (S*)-(5H-benzo[2,3][1,4]dioxepino[5,6-b]pyridin-5-yl)methanamine] | 1 to 10 |  | ≥ 10 |  | > 10 |
| NCC1Oc2ccccc2Oc2cnccc21 (single isomer, unassigned) [Compound 49, (R*)-(5H-benzo[2,3][1,4]dioxepino[5,6-c]pyridin-5-yl)methanamine] | 1 to 10 |  | ≥ 10 | > 10 |  |
| NCC1Oc2ccccc2Oc2cnccc21 (single isomer, unassigned) [Compound 50, (S*)-(5H-benzo[2,3][1,4]dioxepino[5,6-c]pyridin-5-yl)methanamine] | < 1 | > 10 | ≥ 10 |  |  |
| CNCC1Oc2ccccc2Oc2cnccc21 (single isomer, unassigned) [Compound 51, (R*)-1-(5H-benzo[2,3][1,4]dioxepino[5,6-c]pyridin-5-yl)-N-methylmethanamine] | 1 to 10 |  | ≥ 10 |  | 1 to 10 |
| CNCC1Oc2ccccc2Oc2cnccc21 (single isomer, unassigned) [Compound 52, (S*)-1-(5H-benzo[2,3][1,4]dioxepino[5,6-c]pyridin-5-yl)-N-methylmethanamine] | > 10 |  | ≥ 10 |  | 1 to 10 |
| NCC1Oc2ccccc2Oc2ccncc21 (single isomer, unassigned) [Compound 53, (R*)-(11H-benzo[2,3][1,4]dioxepino[6,5-c]pyridin-11-yl)methanamine] | 1 to 10 |  | ≥ 10 |  | > 10 |
| NCC1Oc2ccccc2Oc2ccncc21 (single isomer, unassigned) [Compound 54, (S*)-(11H-benzo[2,3][1,4]dioxepino[6,5-c]pyridin-11-yl)methanamine] | 1 to 10 |  | ≥ 10 |  | > 10 |
| CNC[C@@H]1Oc2ccccc2Oc2ccncc21 (single isomer, unassigned) [Compound 55, (R*)-1-(11H-benzo[2,3][1,4]dioxepino[6,5-c]pyridin-11-yl)-N-methylmethanamine] | > 10 |  | ≥ 10 |  | > 10 |
| CNC[C@H]1Oc2ccccc2Oc2ccncc21 (single isomer, unassigned) [Compound 56, (S*)-1-(11H-benzo[2,3][1,4]dioxepino[6,5-c]pyridin-11-yl)-N-methylmethanamine] | > 10 |  | ≥ 10 |  | > 10 |
| CNCC1Oc2ccccc2Oc2cccnc21 (single isomer, unassigned) [Compound 57, (S*)-1-(11H-benzo[2,3][1,4]dioxepino[6,5-b]pyridin-11-yl)-N-methylmethanamine] | < 1 |  | ≥ 10 | 1 to 10 |  |
